Data as given in article PMC4595804, “A strategy to discover decoy chemokine ligands with an anti-inflammatory activity” (Scientific Reports, 2015).

Experiments:
[1] = biological target: T1, CCL22 (Homo sapiens, UniProt O00626); test: CCL22-induced CCR4+ HUT78 T cell chemotaxis (Transwell), neutraligand protocol; format: cell-based; details: 3 nM CCL22 preincubated 1 h with compound; read-out: IC50, inhibition of CCL22-induced HUT78 chemotaxis
T1 construct: codes for the mature CCL17 or CCL22 with an N-terminal thioredoxin-hexahistidin (TRX- (His)6) tag; thioredoxin (TRX) (N, cleaved yes); (His)6 (N, cleaved yes); made in house; host or cells: E. coli BL21 (DE3)
T1 sequence (O00626 25-93): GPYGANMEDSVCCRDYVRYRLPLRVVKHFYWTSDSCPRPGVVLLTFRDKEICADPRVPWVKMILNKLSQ
Description: (§1) Figure 6 (a) Selectivity of CCL17 and CCL22 neutraligands towards 10 chemokines according to the “neutraligand protocol”. […] Each column represents the mean (block) ± SD (bars) of n = 3 experiments performed in triplicate. *p < 0.05; **p < 0.01; ***p < 0.005 as compared to chemokine + DMSO. (b) Chemokine neutraligands inhibited CCR4 endocytosis induced by CCL22 or CCL17. EGFP-CCR4^+ HEK cells were incubated for 30 min with DMSO or chemokine (100 nM CCL22 or CCL17) in the presence or absence of test compounds. […] Cell surface EGFP-tagged CCR4 receptors were measured by EGFP antibody labeling and flow cytometry analysis. CCR4 internalization was expressed as a percentage of total receptor surface expression calculated using control cells incubated with DMSO (100%). […] The number of migrating cells in the presence of chemokine and compounds were expressed as the corresponding percentages. Results were analyzed by fitting the experimental curves (% of migrating cells vs log compound concentration) using the Kaleidagraph software program, and the corresponding IC50 values were calculated. […]
The T- cell line, HUT78 (ATCC), was cultured in RPMI 1640 supplemented with streptomycin, penicillin and 10% FCS without phenol red. […] After a 2 h incubation at 37 °C and 5%CO2, the plates were read with an excitation wavelength of 485 nm and an emission wavelength of 535 nm. […]

[2] = biological target: T2, CCL2 (Homo sapiens, UniProt P13500); test: Selectivity, neutraligand protocol, EGFP-CCR2+ HEK cells; format: cell-based; details: 10 μM compound, 5 nM CCL2, EGFP-CCR2+ HEK cells
T2 construct: purchased R&D systems
Description: as §1
Dye loaded cells were placed in the FlexStation 3 (Molecular Devices). Calcium mobilization was measured at 401 and 475 nm emission fluorescence after excitation at 355 nm. […] Raw fluorescence data (at 401 and 475 nm) were exported and the ratio 401/475 was calculated. […]

T2 sequence (P13500 24-99): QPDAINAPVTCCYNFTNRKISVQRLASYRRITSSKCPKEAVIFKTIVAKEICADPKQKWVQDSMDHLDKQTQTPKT

In the case of `O=C(OCC(O)CO)c1ccccc1O` (centres unmarked) [GPN136, 2,3-dihydroxypropyl 2-hydroxybenzoate], the IC50 [1] is reported as 340 ± 100 pM and the “effect on calcium responses induced by CCL2” value [2] is reported as “no effect”.
